Reference: the NIST ThermoML archive (doi:10.1016/j.jct.2016.12.037)

Columns and labels:
[1] = 100 kPa, Liquid; for viscosity: Concentric cylinders viscometry; for mass density: Vibrating tube method
[2] = xn = mol fraction of the nth substance listed; settings: 100 kPa, Liquid, x1 = 1; for viscosity: Concentric cylinders viscometry; for mass density: Vibrating tube method

CCCCn1cc[n+](C)c1.[Cl-] [1-butyl-3-methylimidazolium chloride]
[1]
Settings	mass density [kg/m3]	viscosity [mPa·s]
348.15 K	1053.9	217
353.15 K	1051.2	162.1
358.15 K	1048.5	123.3
363.15 K	1045.9	95.6
368.15 K	1043.3	75.39
373.15 K	1040.8	60.26

CCCCn1cc[n+](C)c1.[Cl-] [1-butyl-3-methylimidazolium chloride] + CCCC[n+]1ccn(C)c1.O=S(=O)([N-]S(=O)(=O)C(F)(F)F)C(F)(F)F
[2]
Settings	mass density [kg/m3]	viscosity [mPa·s]
348.15 K	1053.9	217
353.15 K	1051.2	162.1
358.15 K	1048.5	123.3
363.15 K	1045.9	95.6
368.15 K	1043.3	75.39
373.15 K	1040.8	60.26
